Measured values reported in patent US8022057B2, “MAPK/ERK kinase inhibitors” (Takeda Pharmaceutical Company Limited, priority 2007, dated 2011).
pIC50: −log10 of the molar value.

molecular target: T1, MEK1 (Homo sapiens, UniProt Q02750, DEL33-52/S218E/S222D); experiment: MEK1 inhibition, fluorescence polarization (IMAP) assay with ERK1 and FI-Erktide; format: biochemical; conditions: 1 nM MEK1, 25 nM ERK1, 400 μM ATP, 500 nM FI-Erktide, 22 min at room temperature; read-out: IC50 of Exemplified Compounds Against MEK1
T1 construct: 6-histidine tag (pFastbac leader) (N); made in house; host or cells: Spodoptera frugiperda Sf9 (baculovirus) for MEK1; E. coli for GST-ERK1
Experimental: The deletion from residues 32-51, and the two mutations, S218E and S222D, may be obtained by quick change PCR.
Reaction product is determined quantitatively by fluorescent polarization using progressive IMAP beads from Molecular Devices.
The reaction mixture may then be incubated at room temperature for 22 min, and quenched and developed by addition of 20 μl of 1:200 dilution of progressive IMAP beads (Molecular Devices) in 80% buffer A, 20% buffer B and 0.003% Tween 20. Fluorescence polarization of the resulting reaction mixtures may be measured after a 1 hour incubation at room temperature.
IC50 values may be calculated by non-linear curve fitting of the compound concentrations and fluorescence polarization signal to the standard IC50 equation.

T1 sequence (Q02750 with tags, fused parts or gaps DEL33-52/S218E/S222D): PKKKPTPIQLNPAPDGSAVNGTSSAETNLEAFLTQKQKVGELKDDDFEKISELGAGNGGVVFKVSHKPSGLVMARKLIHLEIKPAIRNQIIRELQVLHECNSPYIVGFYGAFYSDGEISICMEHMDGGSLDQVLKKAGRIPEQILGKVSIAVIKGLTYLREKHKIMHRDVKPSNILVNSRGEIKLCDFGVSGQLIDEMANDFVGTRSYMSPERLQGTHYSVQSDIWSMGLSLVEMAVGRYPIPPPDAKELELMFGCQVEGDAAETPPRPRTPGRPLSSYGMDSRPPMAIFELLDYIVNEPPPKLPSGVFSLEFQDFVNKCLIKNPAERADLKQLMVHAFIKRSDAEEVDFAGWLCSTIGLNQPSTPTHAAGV

| SMILES | pIC50 |
| --- | --- |
| O=C(O)c1c(Nc2ccc(I)cc2F)c(F)c(=O)n2c1CCC2 [Example 1, 6-Fluoro-7-(2-fluoro-4-iodophenylamino)-5-oxo-1,2,3,5-tetrahydroindolizine-8-carboxylic acid] | ≥ 7.00 |
| O=C(NOC[C@H](O)CO)c1c(Nc2ccc(I)cc2F)c(F)c(=O)n2c1CCC2 [Example 2, (R)—N-(2,3-Dihydroxypropoxy)-6-fluoro-7-(2-fluoro-4-iodophenylamino)-5-oxo-1,2,3,5-tetrahydroindolizine-8-carboxamide] | ≥ 7.00 |
| O=C(NOC(CO)CO)c1c(Nc2ccc(I)cc2F)c(F)c(=O)n2c1CCC2 [Example 3, N-(1,3-Dihydroxypropan-2-yloxy)-6-fluoro-7-(2-fluoro-4-iodophenylamino)-5-oxo-1,2,3,5-tetrahydroindolizine-8-carboxamide] | ≥ 7.00 |
| C#Cc1ccc(Nc2c(C(=O)NOCCO)c3n(c(=O)c2F)CCC3)c(F)c1 [Example 11, 7-(4-Ethynyl-2-fluorophenylamino)-6-fluoro-N-(2-hydroxyethoxy)-5-oxo-1,2,3,5-tetrahydroindolizine-8-carboxamide] | ≥ 7.00 |

More lines, now with the values ahead:

| pIC50 | SMILES |
| --- | --- |
| ≥ 7.00 | O=C(NOCCO)c1c(Nc2ccc(I)cc2F)c(F)c(=O)n2c1CCC2 [Example 4, 6-Fluoro-7-(2-fluoro-4-iodophenylamino)-N-(2-hydroxyethoxy)-5-oxo-1,2,3,5-tetrahydroindolizine-8-carboxamide] |
| ≥ 7.00 | O=C(NOC[C@@H](O)CO)c1c(Nc2ccc(I)cc2F)c(F)c(=O)n2c1CCC2 [Example 5, (S)—N-(2,3-Dihydroxypropoxy)-6-fluoro-7-(2-fluoro-4-iodophenylamino)-5-oxo-1,2,3,5-tetrahydroindolizine-8-carboxamide] |
| ≥ 7.00 | O=C(NOCCO)c1c(Nc2ccc(I)cc2F)c(F)c(=O)n2c1CCCC2 [Example 7, 7-Fluoro-8-(2-fluoro-4-iodophenylamino)-N-(2-hydroxyethoxy)-6-oxo-2,3,4,6-tetrahydro-1H-quinolizine-9-carboxamide] |
| ≥ 7.00 | Cc1c(Nc2ccc(I)cc2F)c(C(=O)NOCCO)c2n(c1=O)CCC2 [Example 8, 7-(2-Fluoro-4-iodophenylamino)-N-(2-hydroxyethoxy)-6-methyl-5-oxo-1,2,3,5-tetrahydroindolizine-8-carboxamide] |
| ≥ 7.00 | O=C(NOCCO)c1c(Nc2ccc(I)cc2F)c(Cl)c(=O)n2c1CCC2 [Example 10, 6-Chloro-7-(2-fluoro-4-iodophenylamino)-N-(2-hydroxyethoxy)-5-oxo-1,2,3,5-tetrahydroindolizine-8-carboxamide] |
